Assay results: ChEMBL document CHEMBL4732190, “Identification of Potent and Long-Acting Single-Chain Peptide Mimetics of Human Relaxin-2 for Cardiovascular Diseases” (J Med Chem, 2021)
Converted amounts (≈) assume the structure as drawn. *1 amine or outer side, *2 acyl side, *3 side chain or, on linkers, in order; H or OH if unused. Where a SMILES comes first, the peptide text is derived from it. [ ]: non-standard residue; d: D form. The star is where a group is joined. PEG11 = NCCOCCOCCOCCOCCOCCOCCOCCOCCOCCOCCOCCC(=O)O; X9 = NC(=O)CC[C@H](N*)C(=O)CCCCCCCCCCCCCCCCCC(=O)O; X8 = NC(=O)CC[C@H](N*)C(=O)CCCCCCCCCCCCCCCC(=O)O; X7 = CCCCCCCCCCCCCCCC(=O)[C@H](CCC(N)=O)N*; β2hAla(2S) = C[C@@H](CN[*:1])C(=O)[*:2]; X4 = CCCC[C@H](O[*:1])C(=O)[*:2]; hLys = NCCCCC[C@H](N)C(=O)O; Nle = CCCC[C@H](N)C(=O)O; Orn = NCCC[C@H](N)C(=O)O

Assays:
[1] = Stability in rat plasma assessed as parent compound remaining level at 5 uM remaining after 4 hrs; type: ADME, cell-free; conditions: read-out: Stabilty
Relaxin receptor 1 [2] = biological target: T1, Relaxin receptor 1 (Homo sapiens, UniProt Q9HBX9); assay: Agonist activity at RXFP1 endogenously expressed in human OVCAR-5 cells assessed as increase in IBMX-induced cAMP accumulation pretreated with IBMX for 40 mins followed by compound addition and measured after 30 mins by HTRF assay; type: functional, cell-based
T1 sequence (Q9HBX9 whole entry): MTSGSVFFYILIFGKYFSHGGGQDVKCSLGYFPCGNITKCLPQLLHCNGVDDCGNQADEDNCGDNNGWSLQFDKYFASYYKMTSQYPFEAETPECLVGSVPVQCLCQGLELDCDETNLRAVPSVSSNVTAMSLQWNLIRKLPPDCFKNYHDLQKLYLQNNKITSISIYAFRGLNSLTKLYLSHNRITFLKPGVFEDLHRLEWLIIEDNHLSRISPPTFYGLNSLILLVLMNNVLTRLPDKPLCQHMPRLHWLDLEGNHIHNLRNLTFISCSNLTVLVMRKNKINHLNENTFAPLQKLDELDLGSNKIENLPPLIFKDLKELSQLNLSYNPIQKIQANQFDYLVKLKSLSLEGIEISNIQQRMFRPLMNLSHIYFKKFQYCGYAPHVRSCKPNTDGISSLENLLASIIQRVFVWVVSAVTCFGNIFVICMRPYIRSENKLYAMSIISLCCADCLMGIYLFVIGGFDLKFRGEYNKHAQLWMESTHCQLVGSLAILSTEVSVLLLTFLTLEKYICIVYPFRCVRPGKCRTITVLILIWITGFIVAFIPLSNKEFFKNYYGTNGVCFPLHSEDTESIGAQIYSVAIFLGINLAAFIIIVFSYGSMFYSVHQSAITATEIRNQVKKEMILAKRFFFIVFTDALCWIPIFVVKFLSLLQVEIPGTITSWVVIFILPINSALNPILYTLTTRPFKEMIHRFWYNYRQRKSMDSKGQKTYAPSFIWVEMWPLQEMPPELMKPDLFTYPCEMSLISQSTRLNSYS

[3] = biological target: T2, Relaxin receptor 1 (Homo sapiens) (UniProt Q9HBX9); assay: Agonist activity at RXFP1 endogenously expressed in human OVCAR-5 cells assessed as increase in IBMX-induced cAMP accumulation pretreated with IBMX for 40 mins followed by compound addition and measured after 30 mins by HTRF assay relative to relaxin; type: functional, cell-based; conditions: filed as agonist
T2 sequence (whole entry): T1 sequence (Q9HBX9 whole entry)

[4] = Stability in human plasma assessed as parent compound remaining level at 5 uM remaining after 4 hrs; type: ADME, cell-free; conditions: read-out: Stabilty
[5] = Aqueous solubility of compound in acetate buffer at pH 4.5 measured after 24 hrs by UPLC analysis; type: physicochemical
[6] = Aqueous solubility of compound in phosphate buffer at pH 7.4 measured after 24 hrs by UPLC analysis; type: physicochemical
[7] = Half life in Sprague-Dawley rat at 1 mg/kg, iv measured upto 72 hrs by LC-HRMS analysis; type: ADME, organism-based; conditions: in vivo
Relaxin receptor 1 [8] = biological target: T1, Relaxin receptor 1; assay: Agonist activity at RXFP1 endogenously expressed in human OVCAR-5 cells assessed as increase in IBMX-induced cAMP accumulation pretreated with IBMX for 40 mins followed by compound addition and measured after 30 mins in presence of 2 % HSA by HTRF assay; type: functional, cell-based

## CC[C@H](C)[C@H](NC(=O)[C@H](CCC(N)=O)NC(=O)[C@H](C)NC(=O)[C@H](CCCNC(=N)N)NC(=O)[C@@H](NC(=O)[C@H](CCCCN)NC(=O)[C@H](CCC(=O)O)NC(=O)[C@H](CCCNC(=N)N)NC(=O)CNC(=O)[C@H](CCC(=O)O)NC(=O)[C@H](CC(C)C)NC(=O)[C@H](CCCCN)NC(=O)[C@@H](NC(=O)[C@@H](NC(=O)[C@H](CCC(=O)O)NC(=O)[C@H](CCC(=O)O)NC(C)=O)C(C)C)[C@@H](C)CC)C(C)C)C(=O)NC[C@H](C)C(=O)NC[C@H](C)C(=O)N[C@@H](CCC(=O)O)C(=O)NCC(=O)N[C@@H](CCSC)C(=O)N[C@@H](CO)C(=O)N[C@H](C(=O)N[C@@H](Cc1c[nH]c2ccccc12)C(=O)N[C@@H](CO)C(=O)NC[C@H](C)C(=O)N[C@@H](CCCNC(=N)N)C(=O)N[C@@H](CCCCN)C(=O)N[C@@H](CCCCN)C(N)=O)[C@@H](C)O (Ac-EEVIKLEGREKVRAQI[β2hAla(2S)][β2hAla(2S)]EGMSTWS[β2hAla(2S)]RKK-NH2)
[1]
  remaining at 4 h, 5 µM: 60%
Relaxin receptor 1 [2]
  EC50: 17.8 nM
[3]
  Emax: 99%
[4]
  remaining at 4 h, 5 µM: 80%
[5]
  solubility at 24 h: 2800 µg/mL (≈ 827 µM)
[6]
  solubility at 24 h: 2400 µg/mL (≈ 709 µM)

## CCCC[C@H](OC(=O)CNC(=O)[C@H](CCC(=O)O)NC(=O)[C@@H](C)CNC(=O)[C@@H](C)CNC(=O)[C@@H](NC(=O)[C@H](CCCCCNC(C)=O)NC(=O)[C@@H](C)CNC(=O)[C@@H](C)CNC(=O)[C@H](CCCCN)NC(=O)[C@H](C)NC(=O)[C@H](CCCNC(=N)N)NC(=O)[C@@H](NC(=O)[C@H](CCCCN)NC(=O)[C@H](CCC(=O)O)NC(=O)[C@H](CCCNC(=N)N)NC(=O)CNC(=O)[C@H](CCC(=O)O)NC(=O)[C@H](CC(C)C)NC(C)=O)C(C)C)[C@@H](C)CC)C(=O)N[C@@H](CO)C(=O)N[C@H](C(=O)N[C@@H](Cc1c[nH]c2ccccc12)C(=O)N[C@@H](CO)C(=O)NC[C@H](C)C(=O)N[C@@H](CCCNC(=N)N)C(=O)N[C@@H](CCCCN)C(=O)N[C@@H](CCCN)C(=O)N[C@@H](CCCCCNC(C)=O)C(N)=O)[C@@H](C)O (Ac-LEGREKVRAK[β2hAla(2S)][β2hAla(2S)][hLys](Ac)I[β2hAla(2S)][β2hAla(2S)]EG[X4]STWS[β2hAla(2S)]RK[Orn][hLys](Ac)-NH2)
[1]
  remaining at 4 h, 5 µM: 60%
Relaxin receptor 1 [2]
  EC50: 18 nM
[3]
  Emax: 93%
[4]
  remaining at 4 h, 5 µM: 74%
[5]
  solubility at 24 h: 4000 µg/mL (≈ 1210 µM)
[6]
  solubility at 24 h: 4000 µg/mL (≈ 1210 µM)

## CCCCCCCCCCCCCCCC(=O)[C@H](CCC(N)=O)NC(=O)[C@H](CCC(=O)O)NC(=O)[C@H](CCC(=O)O)NC(=O)[C@H](CCCCN)NC(=O)CCOCCOCCOCCOCCOCCOCCOCCOCCOCCOCCOCCNC(=O)[C@H](CCCCN)NC(=O)[C@H](CCCNC(=N)N)NC(=O)[C@@H](C)CNC(=O)[C@H](CO)NC(=O)[C@H](Cc1c[nH]c2ccccc12)NC(=O)[C@@H](NC(=O)[C@H](CO)NC(=O)[C@H](CCCC)NC(=O)[C@H](CCSC)NC(=O)CNC(=O)[C@H](CCC(=O)O)NC(=O)[C@@H](C)CNC(=O)[C@@H](C)CNC(=O)[C@@H](NC(=O)[C@H](CCC(N)=O)NC(=O)[C@H](C)NC(=O)[C@H](CCCNC(=N)N)NC(=O)[C@@H](NC(=O)[C@H](CCCCN)NC(=O)[C@H](CCC(=O)O)NC(=O)[C@H](CCCNC(=N)N)NC(=O)[C@H](CCC(=O)O)NC(=O)CNC(=O)[C@H](CCC(=O)O)NC(=O)[C@H](CC(C)C)NC(C)=O)C(C)C)[C@@H](C)CC)[C@@H](C)O (Ac-LEGEREKVRAQI[β2hAla(2S)][β2hAla(2S)]EGM[Nle]STWS[β2hAla(2S)]RK[PEG11]KEE-X7)
[7]
  half-life: 6.4 h
Relaxin receptor 1 [2]
  EC50: 3.2 nM
[3]
  Emax: 74%

## CC[C@H](C)[C@H](NC(=O)[C@H](CCC(N)=O)NC(=O)[C@H](C)NC(=O)[C@H](CCCNC(=N)N)NC(=O)[C@@H](NC(=O)[C@H](CC(C)C)NC(=O)[C@H](CCC(=O)O)NC(=O)[C@H](CCCNC(=N)N)NC(=O)CNC(=O)[C@H](CO)NC(=O)[C@H](CC(C)C)NC(=O)[C@H](CCCCN)NC(=O)[C@@H](NC(=O)[C@@H](NC(C)=O)C(C)C)[C@@H](C)CC)C(C)C)C(=O)NC[C@H](C)C(=O)N[C@H](C(=O)N[C@@H](CO)C(=O)NCC(=O)N[C@@H](CCSC)C(=O)N[C@@H](CO)C(=O)N[C@H](C(=O)N[C@@H](Cc1c[nH]c2ccccc12)C(=O)N[C@@H](CO)C(=O)N[C@@H](CCCCN)C(=O)N[C@@H](CCCNC(=N)N)C(=O)N[C@@H](CCCCN)C(=O)N[C@@H](CCCCN)C(N)=O)[C@@H](C)O)[C@@H](C)CC (HELM PEPTIDE1{[ac].V.I.K.L.S.G.R.E.L.V.R.A.Q.I.[C[C@@H](CN[*:1])C(=O)[*:2]].I.S.G.M.S.T.W.S.K.R.K.K.[am]}$$$$V2.0)
[1]
  remaining at 4 h, 5 µM: 37%
Relaxin receptor 1 [2]
  EC50: 202 nM
[3]
  Emax: 90%
[4]
  remaining at 4 h, 5 µM: 54%
[5]
  solubility at 24 h: 5700 µg/mL (≈ 1840 µM)
[6]
  solubility at 24 h: 4600 µg/mL (≈ 1480 µM)

## H-VIKLSGRELVRAQIAISGMSTWSKRSL-NH2
[1]
  remaining at 4 h, 5 µM: 2%
[4]
  remaining at 4 h, 5 µM: 3%
[5]
  solubility at 24 h: 1900 µg/mL
[6]
  solubility at 24 h: 14 µg/mL

## CCCC[C@H](NC(=O)[C@H](CCSC)NC(=O)CNC(=O)[C@H](CCC(=O)O)NC(=O)[C@@H](C)CNC(=O)[C@@H](C)CNC(=O)[C@@H](NC(=O)[C@H](CCCCCNC(C)=O)NC(=O)[C@H](CCCCN)NC(=O)[C@H](C)NC(=O)[C@H](CCCNC(=N)N)NC(=O)[C@@H](NC(=O)[C@H](CCCCN)NC(=O)[C@H](CCC(=O)O)NC(=O)[C@H](CCCNC(=N)N)NC(=O)[C@H](CCC(=O)O)NC(=O)CNC(=O)[C@H](CCC(=O)O)NC(=O)[C@H](CC(C)C)NC(C)=O)C(C)C)[C@@H](C)CC)C(=O)N[C@@H](CCCCN)C(=O)N[C@@H](CCCCCNC(C)=O)C(=O)N[C@@H](CO)C(=O)N[C@H](C(=O)N[C@@H](Cc1c[nH]c2ccccc12)C(=O)N[C@@H](CO)C(=O)NC[C@H](C)C(=O)N[C@@H](CCCNC(=N)N)C(=O)N[C@@H](CCCCN)C(=O)N[C@@H](CCCCN)C(=O)N[C@@H](CCCCCNC(C)=O)C(=O)N[C@@H](CCCCN)C(=O)N[C@@H](CCC(=O)O)C(=O)N[C@@H](CCC(=O)O)C(=O)N[C@@H](CCC(N)=O)C(=O)CCCCCCCCCCCCCCCCCC(=O)O)[C@@H](C)O (Ac-LEGEREKVRAK[hLys](Ac)I[β2hAla(2S)][β2hAla(2S)]EGM[Nle]K[hLys](Ac)STWS[β2hAla(2S)]RKK[hLys](Ac)KEE-X9)
Relaxin receptor 1 [8]
  EC50: > 2000 nM
Relaxin receptor 1 [2]
  EC50: 368 nM
[3]
  Emax: 75%

## CCCC[C@H](NC(=O)[C@H](CCSC)NC(=O)CNC(=O)[C@H](CCC(=O)O)NC(=O)[C@@H](C)CNC(=O)[C@@H](C)CNC(=O)[C@@H](NC(=O)[C@H](CCCCCNC(C)=O)NC(=O)[C@H](CCCCN)NC(=O)[C@H](C)NC(=O)[C@H](CCCNC(=N)N)NC(=O)[C@@H](NC(=O)[C@H](CCCCN)NC(=O)[C@H](CCC(=O)O)NC(=O)[C@H](CCCNC(=N)N)NC(=O)[C@H](CCC(=O)O)NC(=O)CNC(=O)[C@H](CCC(=O)O)NC(=O)[C@H](CC(C)C)NC(C)=O)C(C)C)[C@@H](C)CC)C(=O)N[C@@H](CCCCN)C(=O)N[C@@H](CCCCCNC(C)=O)C(=O)N[C@@H](CO)C(=O)N[C@H](C(=O)N[C@@H](Cc1c[nH]c2ccccc12)C(=O)N[C@@H](CO)C(=O)NC[C@H](C)C(=O)N[C@@H](CCCNC(=N)N)C(=O)N[C@@H](CCCCN)C(=O)N[C@@H](CCCCN)C(=O)N[C@@H](CCCCCNC(C)=O)C(=O)N[C@@H](CCCCN)C(=O)N[C@@H](CCC(=O)O)C(=O)N[C@@H](CCC(=O)O)C(=O)N[C@@H](CCC(N)=O)C(=O)CCCCCCCCCCCCCCCC(=O)O)[C@@H](C)O (Ac-LEGEREKVRAK[hLys](Ac)I[β2hAla(2S)][β2hAla(2S)]EGM[Nle]K[hLys](Ac)STWS[β2hAla(2S)]RKK[hLys](Ac)KEE-X8)
Relaxin receptor 1 [8]
  EC50: > 2000 nM
Relaxin receptor 1 [2]
  EC50: 809 nM
[3]
  Emax: 70%
